In ChEMBL document CHEMBL1126445, “Acetylcholine-releasing agents as cognition enhancers. Structure-activity relationships of pyridinyl pendant groups on selected core structures” (1992):

Species: Rattus norvegicus
Test: Compound was evaluated for its ability to enhance the release of acetylcholine in vitro by using [3H]choline in rat brain slice superfusion system
Assay type: functional

Compound	Release [%]
O=C1c2cccc3cccc(c23)C1(Cc1ccccn1)Cc1ccccn1	40
O=C1N(c2ccccc2)c2ccccc2C1(Cc1cccnc1)Cc1cccnc1	38
O=C1CCc2ccccc2C1(Cc1ccccn1)Cc1ccccn1	25
C=C1c2cccc3cccc(c23)C1(Cc1cccnc1)Cc1cccnc1	21
c1ccc2c(c1)Oc1ccccc1C2(Cc1ccncc1)Cc1ccncc1	91
OC1c2cccc3cccc(c23)C1(Cc1ccccn1)Cc1ccccn1 (stereo unspecified)	53
O=C1N(c2ccccc2)c2ccccc2C1(Cc1ccccn1)Cc1ccccn1	22
c1ccc(CC2(Cc3ccccn3)c3ccccc3Oc3ccccc32)nc1	24
c1cncc(CC2(Cc3cccnc3)c3ccccc3Oc3ccccc32)c1	59
OC1c2cccc3cccc(c23)C1(Cc1ccncc1)Cc1ccncc1 (stereo unspecified)	15
O=C1c2cccc3cccc(c23)C1(Cc1cccnc1)Cc1cccnc1	7
C=C1c2cccc3cccc(c23)C1(Cc1ccncc1)Cc1ccncc1	97
OC1c2cccc3cccc(c23)C1(Cc1cccnc1)Cc1cccnc1 (stereo unspecified)	29
C=C1c2cccc3cccc(c23)C1(Cc1ccccn1)Cc1ccccn1	25
O=C1CCc2ccccc2C1(Cc1ccncc1)Cc1ccncc1	36
O=C1CCc2ccccc2C1(Cc1cccnc1)Cc1cccnc1	11
O=C1c2cccc3cccc(c23)C1(Cc1ccncc1)Cc1ccncc1	70
c1ccc2c(c1)Sc1ccccc1C2(Cc1ccncc1)Cc1ccncc1	42
c1cncc(CC2(Cc3cccnc3)c3ccccc3Sc3ccccc32)c1	79
c1ccc(CC2(Cc3ccccn3)c3ccccc3Sc3ccccc32)nc1	47
O=C1N(c2ccccc2)c2ccccc2C1(Cc1ccncc1)Cc1ccncc1 [LINOPIRDINE]	100
